Data published in patent publication US6300501A, “Histidine-(N-benzyl glycinamide) inhibitors of protein farnesyl transferase” (Warner-Lambert Company, priority 1998, dated 2001).
Like-named read-outs stand apart in the source and are kept apart here.

Legend:
[1] = test system: ras farnesylation in ras-transformed cells; assay: Gel shift assay; format: cell-based; details: for minimal effective concentration: ras-transformed cells, 18-hour incubation, read-out: Gel Shift (μM) MED (minimal effective dose to observe inhibition of ras farnesylation)
Method: Twenty-four hours after planting 2×10^6 ras-transformed cells per treatment condition, the farnesylation inhibitor is added at varying concentrations. Following an 18-hour incubation period, cells are lysed in phosphate-buffered saline containing 1% Triton X-100, 0.5% sodium deoxycholate, and 0.1% SDS (sodium dodecyl sulfate), pH 7.4 in the presence of several protease inhibitors (PMSF (phenylmethylsulfonylfluoride), antipain, leupeptin, pepstatin A, and aprotinin all at 1 μg/mL). Ras protein is immunoprecipitated from the supernatants by the addition of 3 μg v-H-ras Ab-2 (Y13-259 antibody from Oncogene Science). After overnight immunoprecipitation, 30 μL of a 50% protein G-Sepharose slurry (Pharmacia) is added followed by 45-minute incubation. Pellets are resuspended in 2× tris-glycine loading buffer (Novex) containing 5% β-mercaptoethanol and then denatured by 5 minutes boiling prior to electrophoresis on 14% Tris-glycine SDS gels. Using Western transfer techniques, proteins are transferred to nitrocellulose membranes followed by blocking in blocking buffer. Upon overnight incubation with primary antibody (pan-ras Ab-2 from Oncogene Science), an antimouse HRP (horse radish peroxidase) conjugate secondary antibody (Amersham) is employed for detection of the ras protein. Blots are developed using ECL(enhanced chemiluminescence) techniques (Amersham).

[2] = molecular target: T1, SF9 affinity purified rat farnesyl protein transferase (Rattus norvegicus, UniProt Q02293+Q04631); assay: PFT inhibitory activity (radiolabeled farnesyl pyrophosphate, streptavidin bead assay); format: biochemical
T1 construct: made in house; host or cells: Sf9 insect cells (baculovirus system inferred from b7)
Method: The protein:farnesyl transferase (PFT) or farnesyl protein transferase (FPT) inhibitory activity of compounds of the present invention were assayed in HEPES buffer (pH 7.4) containing 5 mM potassium phosphate and 20 μM ZnCl2. The solution also contained 5 mM DTT (dithiothreitol), 5 mM MgCl2, and 0.1% PEG 8000. Assays were performed in 96 well plates (Wallec) and employed solutions composed of varying concentrations of a compound of the present invention in 100% DMSO (dimethylsulfoxide). Upon addition of both substrates, radiolabeled farnesyl pyrophosphate ([1^3 H], specific activity 15-30 Ci/mmol, final concentration 134 nM) and (biotinyl)-Ahe-Thr-Lys-Cys-Val-Ile-Met ([3aS[3a alpha, 4 beta, 6a alpha]-hexahydro-2-oxo-1H-thieno[3,4-d]imidazole-5-pentanoic acid]-[7-aminoheptanoic acid]-Thr-Lys-Cys-Val-Ile-Met) (Ahe is 7-aminoheptanoic acid, Thr is threonine, Lys is lysine, Cys is cysteine, Val is valine, Ile is isoleucine and Met is methionine) (final concentration 0.2 μM), the enzyme reaction was started by addition of SF9 affinity purified rat farnesyl protein transferase. After incubation at 30° C. for 30 minutes, the reaction was terminated by diluting the reaction 2.5-fold with a stop buffer containing 1.5 M magnesium acetate, 0.2 M H3 PO4, 0.5% BSA (bovine serum albumin), and strepavidin beads (Amersham) at a concentration of 1.3 mg/mL. After allowing the plate to settle for 30 minutes at room temperature, radioactivity was quantitated on a microBeta counter (Model 1450, Wallec). The assay was also carried out without 5 mM potassium phosphate.

[3] = test system: H61 cells: NIH transformed 3T3 H-ras cells; assay: Clonogenic assay (6 well plates, soft agar); format: cell-based
Method: Clonoaenic Assay (6 well lates)
Sometime previous to setting up an actual test:
1. Make up 1.5% Bacto Agar in Milli-Q water and autoclave.
2. Make up 500 mL 2× DMEM-HG without phenol red by combining the following:
1 bottle DMEM base powder (Sigma D-5030)
Adjust pH to 7.1 with HCL; filter sterilize.
1. Set up makeshift water bath (beaker of water with thermometer, on hot plate) in the hood. Keep water temperature between 37° C. to 43° C.
2. […] 1.5% Bacto Agar for approximately 2 minutes on high, or until completely melted. Then let it cool somewhat before using it. (You can keep it from resolidifying by setting the bottle on the hot plate.) […]
3. Bottom Layer (0.6% agar) Top Layer (0.3% agar)
20% calf serum 20% calf serum
40% Bacto Agar (1.5%) 20% Bacto Agar (1.5%)
Depending on the volume of each layer needed, use either 50 mL conical tubes or 200 mL turnip tubes which can be floated in the "water bath".
4. Add 1 mL of bottom layer agar/medium to each well: deliver 1 mL warm agar/medium to a well; then using the tip of the pipet, spread the agar/medium around to completely cover the bottom. Repeat with next well.
5. Allow the plates to set at room temperature for about 5 minutes until the bottom layer solidifies.
6. Label sterile Falcon 2054 (12×75 mm) tubes and add appropriate volume of drug solutions into them.
7. Aliquot 4 AL of DMSO or drug solution per 1 mL of agar/medium to appropriate tubes; then add the agar/medium/cells to each tube. Always add 1 mL more than will actually be needed. Mix up and down in the pipet (gently); then deliver 1 mL to the center of each well. The upper layer is less viscous, so it will generally spread out over the bottom layer unaided. If necessary, rotate the plane of the plate gently to spread the top layer evenly over the bottom layer.
8. Let plates set for 5 or 10 minutes at room temperature to solidify, then put into 5% CO2, 37° C. incubator.
9. On Day 13, add 0.5 mL of INT (tetrazolium 1 mg/mL in Milli-Q H2 O, filter sterilized) and return plates to incubator.

[4] = HEPES buffer pH 7.4, without 5 mM potassium phosphate, read-out: IC50 (μM) Hepes
[5] = HEPES buffer pH 7.4 containing 5 mM potassium phosphate, read-out: IC50 (μM) 5 mM K3 PO4 -2
[6] = 312 h, colonies counted after Day 13, read-out: Clonogenic Assay IC50
[7] = without 5 mM potassium phosphate, average obtained by additional tests, read-out: IC50 (μM) Hepes, number in parentheses
[8] = average obtained by additional tests, read-out: Clonogenic Assay IC50 (μM), number in parentheses
[9] = colonies counted after Day 13, read-out: Clonogenic Assay IC50

T1 sequence (Q02293 whole entry, one chain of several): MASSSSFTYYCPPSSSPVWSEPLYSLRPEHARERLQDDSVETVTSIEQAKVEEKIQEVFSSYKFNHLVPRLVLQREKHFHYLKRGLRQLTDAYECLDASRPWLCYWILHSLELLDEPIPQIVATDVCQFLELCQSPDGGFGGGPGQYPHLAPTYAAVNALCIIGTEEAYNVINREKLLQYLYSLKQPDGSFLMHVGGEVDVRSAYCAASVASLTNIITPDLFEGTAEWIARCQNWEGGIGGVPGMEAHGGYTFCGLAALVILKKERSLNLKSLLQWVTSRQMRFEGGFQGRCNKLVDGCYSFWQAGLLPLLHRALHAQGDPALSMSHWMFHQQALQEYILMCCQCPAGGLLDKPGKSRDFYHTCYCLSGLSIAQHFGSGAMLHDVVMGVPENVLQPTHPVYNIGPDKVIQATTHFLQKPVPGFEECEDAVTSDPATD

SMILES | IC50 [2, 4] [µM] | IC50 [2, 5] [µM] | IC50 ([2]; with 5 mM potassium phosphate, average obtained by additional tests, read-out: IC50 (μM) 5 mM K3 PO4 -2, number in parentheses) [µM] | minimal effective concentration [1] [µM] | IC50 [3, 6] [µM] | IC50 [2, 7] [µM] | IC50 [3, 8] [µM] | IC50 [3, 9] [µM] | Gel Shift (μM) MED, number in parentheses ([1]; average obtained by additional tests) [µM]
CC(CNC(=O)CN(Cc1ccccc1Cl)C(=O)[C@H](Cc1c[nH]cn1)NC(=O)OCc1ccccc1)c1ccccc1 (stereo partly drawn) [Example 28, (S)-[1-{(2-Chloro-benzyl)-[(2-phenyl-propylcarbamoyl)-methyl]-carbamoyl}-2-(1H-imidazole-4-yl)-ethyl]-carbamic Acid Benzyl Ester] | 2.6 | 0.043 | – | 0.2 | 0.6 | – | – | – | –
O=C(CN(Cc1ccc(OCc2ccccc2)cc1)C(=O)[C@H](Cc1c[nH]cn1)NC(=O)OCc1ccccc1)NCCc1ccccc1F [Example 7, (S)-[1-((4-Benzyloxy-benzyl)-{[2-(2-fluoro-phenyl)-ethylcarbamoyl]-methyl]-carbamoyl)-2-(1H-imidazole-4-yl)-ethyl]-carbamic Acid Benzyl Ester] | 9.8 | 0.36 | – | 0.1 | > 1 | – | – | – | –
Cc1cccc(CN(CC(=O)NCC(C)c2ccccc2)C(=O)[C@H](Cc2c[nH]cn2)NC(=O)OCc2ccccc2)c1 (stereo partly drawn) [Example 47, (S)-(2-(1H-Imidazole-4-yl)-1-{(3-methyl-benzyl)-[(2-phenyl-propylcarbamoyl)-methyl]-carbamoyl}-ethyl)-carbamic Acid Benzyl Ester] | 0.62 | 0.035 | – | 0.05 | 0.73 | – | – | – | –
Cc1ccccc1CN(CC(=O)NCC(C)c1ccccc1)C(=O)[C@H](Cc1c[nH]cn1)NC(=O)OCc1ccccc1 (stereo partly shown) [Example 43] | 3.9 | 0.038 | – | 0.2 | – | – | – | > 1 | –
CC(C)(CNC(=O)CN(Cc1ccc(OCc2cccnc2)cc1)C(=O)[C@H](Cc1c[nH]cn1)NC(=O)OCc1ccccc1)c1ccccc1 [Example 50, (S)-(2-(1H-Imidazole-4-yl)-1-{[(2-methyl-2-phenyl-propylcarbamoyl)-methyl]-[4-(pyridin-3-ylmethoxy)-benzyl]-carbamoyl}-ethyl)-carbamic Acid Benzyl Ester] | 0.089 | 0.001 | – | 0.05 | 0.27 | – | – | – | –
O=C(CN(Cc1ccc(OCc2ccccc2)cc1)C(=O)[C@H](Cc1c[nH]cn1)NC(=O)OCc1ccccc1)NCC(c1ccccc1)c1ccccn1 (stereo partly drawn) [Example 12, (S)-[1-{(4-Benzyloxy-benzyl)-[(2-phenyl-2-pyridin-2-yl-ethylcarbamoyl)-methyl]-carbamoyl}-2-(1H-imidazole-4-yl)-ethyl]-carbamic Acid Benzyl Ester] | 1.1 | 0.062 | – | 0.2 | > 1 | – | – | – | –
O=C(CN(Cc1ccc(OCc2ccccc2)cc1)C(=O)[C@H](Cc1c[nH]cn1)NC(=O)OCc1ccccc1)NCC(c1ccccc1)c1ccccc1 [Example 5, (S)-[1-[(4-Benzyloxy-benzyl)-[(2,2-diphenyl-ethylcarbamoyl)-methyl]-carbamoyl]-2-(1H-imidazole-4-yl)-ethvl]-carbamic Acid Benzyl Ester] | 1.73 | 0.038 | – | 0.2 | – | 1.6 | 2.5 | 0.71 | 0.05

The next lines start with results.

IC50 [2, 4] [µM] | IC50 [2, 5] [µM] | IC50 ([2]; with 5 mM potassium phosphate, average obtained by additional tests, read-out: IC50 (μM) 5 mM K3 PO4 -2, number in parentheses) [µM] | SMILES | minimal effective concentration [1] [µM] | IC50 [3, 6] [µM] | IC50 [2, 7] [µM] | IC50 [3, 8] [µM] | IC50 [3, 9] [µM] | Gel Shift (μM) MED, number in parentheses ([1]; average obtained by additional tests) [µM]
0.12 | 0.001 | – | CC(C)(CNC(=O)CN(Cc1ccc(OCc2ccccn2)cc1)C(=O)[C@H](Cc1c[nH]cn1)NC(=O)OCc1ccccc1)c1ccccc1 [Example 40, (S)-(2-(1H-Imidazole-4-yl)-1-{[(2-methyl-2-phenyl-propylcarbamoyl)-methyl]-[4-(pyridin-2-ylmethoxy)-benzyl]-carbamoyl}-ethyl)-carbamic Acid Benzyl Ester] | 0.01 | 0.19 | – | – | – | –
0.3 | 0.002 | – | COc1ccc(CN(CC(=O)NCC(C)(C)c2ccccc2)C(=O)[C@H](Cc2c[nH]cn2)NC(=O)OCc2ccccc2)cc1 [Example 44, (S)-(2-(1H-Imidazole-4-yl)-1-{(4-methoxy-benzyl)-[(2-methyl-2-phenyl-propylcarbamoyl)-methyl]-carbamoyl}-ethyl)-carbamic Acid Benzyl Ester] | 0.02 | 0.36 | – | – | – | –
2.8 | 0.061 | – | CC(CNC(=O)CN(Cc1ccc(F)cc1)C(=O)[C@H](Cc1c[nH]cn1)NC(=O)OCc1ccccc1)c1ccccc1 (stereo partly drawn) [Example 18, (S)-[1-{(4-Fluoro-benzyl)-[(2-phenyl-propylcarbamoyl)-methyl]-carbamoyl}-2-(1H-imidazole-4-yl)-ethyl]-carbamic Acid Benzyl Ester] | 0.2 | > 1 | – | – | – | –
5.8 | 0.0076 | 0.005 | CC(CNC(=O)CN(Cc1ccc(OCc2ccccc2)cc1)C(=O)[C@H](Cc1c[nH]cn1)NC(=O)OCc1ccccc1)c1ccccc1 (stereo partly drawn) [Example 4, (S)-[1-[(4-Benzyloxy-benzyl)-[(2-phenyl-propyl-carbamoyl)-methyl]-carbamoyl]-2-(1H-imidazole-4-yl)-ethyl]carbamic Acid Benzyl Ester] | 0.05 | > 1 | 0.15 | 0.31 | – | –
4.5 | 0.36 | – | O=C(CN(Cc1ccc(OCc2ccccc2)cc1)C(=O)[C@H](Cc1c[nH]cn1)NC(=O)OCc1ccccc1)NCCc1ccccc1Br [Example 9, (S)-[1-((4-Benzyloxy-benzyl)-{[2-(2-bromo-phenyl)-ethylcarbamoyl]-methyl}-carbamoyl)-2-(1H-imidazole-4-yl)-ethyl]-carbamic Acid Benzyl Ester] | 0.2 | > 1 | – | – | – | –
1.5 | 0.017 | – | COc1ccc(CN(CC(=O)NCC(C)c2ccccc2)C(=O)[C@H](Cc2c[nH]cn2)NC(=O)OCc2ccccc2)cc1 (stereo partly drawn) [Example 20, (S)-(2-(1H-Imidazole-4-yl)-1-{(4-methoxy-benzyl)-[(2-phenyl-propylcarbamoyl)-methyl]-carbamoyl}-ethyl)-carbamic Acid Benzyl Ester] | 0.05 | 0.46 | – | – | – | –
